Our source for the Ki values is patent publication US8735391B2, “Synthesis of functionalized octahydro-isoquinolin-1-one-8-carboxamides, octahydro-isoquinolin-1-one-8-carboxylic esters and analogs, and therapeutic methods” (University of Kansas, priority 2008, dated 2014).

The target in this test is DOR (Homo sapiens, UniProt P41143). Kind of test: Opioid secondary binding, DOR (Table 4). The settings on record: Opioid secondary binding activity for Formula 10 analogs.
Chain of DOR (P41143 whole entry): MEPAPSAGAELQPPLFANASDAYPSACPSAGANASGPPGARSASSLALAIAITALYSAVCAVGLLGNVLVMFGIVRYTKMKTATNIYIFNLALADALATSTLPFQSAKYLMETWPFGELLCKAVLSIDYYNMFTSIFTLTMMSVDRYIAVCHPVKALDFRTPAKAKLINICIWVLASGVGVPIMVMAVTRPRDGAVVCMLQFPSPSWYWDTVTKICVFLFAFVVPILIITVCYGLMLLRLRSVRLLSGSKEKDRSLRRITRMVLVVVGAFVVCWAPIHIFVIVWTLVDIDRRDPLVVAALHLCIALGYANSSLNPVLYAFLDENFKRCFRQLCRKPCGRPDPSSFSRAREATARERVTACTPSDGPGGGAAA

On to `O=C(NCc1ccc(Cl)c(Cl)c1)[C@@H]1CC=C[C@@H]2CCN(c3ccccc3)C(=O)[C@@H]21` (racemic) [compound 12142], for which the affinity, expressed as Ki, was 0.103 µM.

Take `O=C(Nc1ccc(Cl)c(C(F)(F)F)c1)[C@@H]1CC=C[C@@H]2CN(Cc3ccccc3)C(=O)[C@@H]21` (racemic) [compound 14433]: the affinity, expressed as Ki, was 1.94 µM. Against the preceding compound, the Ki is about 19-fold higher.

On to `C=CCNC(=O)[C@@H]1CC=C[C@@H]2CCN(CC3CCCCC3)C(=O)[C@@H]21` (racemic) [compound 12110], for which the affinity, expressed as Ki, was 1.43 µM.

In the case of `O=C(NCc1ccc(Cl)c(Cl)c1)[C@@H]1CC=C[C@@H]2CCN(CC3CCCCC3)C(=O)[C@@H]21` (racemic) [compound 12136], affinity was put at a Ki of 1.3 µM.

As to `Cc1ccc(NC(=O)[C@@H]2CC=C[C@@H]3CCN(c4ccccc4)C(=O)[C@@H]32)cc1Cl` (racemic) [compound 11925], the Ki (commonly the dissociation constant of the complex between target and ligand, obtained from inhibition or displacement) came out at 0.015 µM.

`CC(c1ccccc1)N1CCC2C=CCC(C(=O)Nc3ccc(F)c(F)c3)C2C1=O` (mixture of isomers) [compound 12166] came in with an inhibitory constant (Ki) of 3.2 µM.

`O=C(Nc1ccccc1)[C@@H]1CC=C[C@@H]2CN(Cc3ccccc3)C(=O)[C@@H]21` (racemic) [compound 14429] came in with a Ki of 7.02 µM.

Compound `O=C([C@@H]1CC=C[C@@H]2CCN(c3ccccc3)C(=O)[C@@H]21)N1CCCC1` (racemic) [compound 12094] returned a Ki above 10 µM.

In turn, `O=C(Nc1ccc(Br)c(C(F)(F)F)c1)[C@@H]1CC=C[C@@H]2CN(C3CCCCC3)C(=O)[C@@H]21` (racemic) [compound 14438] gave a Ki of 1.92 µM.

Compound `O=C(Nc1nccs1)[C@@H]1CC=C[C@@H]2CCCN(C3CCCCC3)C(=O)[C@@H]21` (racemic) [compound 14428] showed an inhibitory constant (Ki) of 2.99 µM.

Regarding `O=C(NCC1CC1)[C@@H]1CC=C[C@@H]2CCN(C3CCCCC3)C(=O)[C@@H]21` (racemic) [compound 12085], the Ki turned out to be 0.475 µM.

Take `NC(=O)c1ccccc1NC(=O)[C@@H]1CC=C[C@@H]2CCN(c3ccccc3)C(=O)[C@@H]21` (racemic) [compound 12117]: the Ki was found to be 0.648 µM.

In turn, `Cc1ccc(CNC(=O)[C@@H]2CC=C[C@@H]3CCN(Cc4ccccc4)C(=O)[C@@H]32)cc1` (racemic) [compound 11956] showed a Ki of 2.36 µM.

In the case of `O=C(Nc1ccccc1)[C@@H]1CC=C[C@@H]2CCN(CC3CC3)C(=O)[C@@H]21` (racemic) [compound 12153], the inhibitory constant (Ki) was determined as 6.62 µM. Compared with the last compound, the Ki is about 2.8-fold higher.

On to `CCOC(=O)C1CCCCN1C(=O)[C@@H]1CC=C[C@@H]2CCN(CC3CCCCC3)C(=O)[C@@H]21` (mixture of isomers) [compound 12115], for which the affinity corresponds to a Ki of 9.15 µM.

The compound `O=C(NCC1CC1)[C@@H]1CC=C[C@@H]2CCN(CC3CC3)C(=O)[C@@H]21` (racemic) [compound 12090] yielded an inhibition constant Ki of 5.65 µM.

In turn, `O=C(NC12CC3CC(CC(C3)C1)C2)[C@@H]1CC=C[C@@H]2CCN(c3ccccc3)C(=O)[C@@H]21` (racemic) [compound 11946] showed a Ki of 0.116 µM.

Take `Cc1ccc(CNC(=O)[C@@H]2CC=C[C@@H]3CCN(c4ccccc4)C(=O)[C@@H]32)cc1` (racemic) [compound 11950]: the Ki is 0.297 µM.

`O=C(Nc1ccc(Cl)c(C(F)(F)F)c1)[C@@H]1CC=C[C@@H]2CCN(CC3CC3)C(=O)[C@@H]21` (racemic) [compound 12156]: the affinity corresponds to a Ki of 0.788 µM.

`CC(C)N(C(=O)[C@@H]1CC=C[C@@H]2CCN(c3ccccc3)C(=O)[C@@H]21)C1CCCCC1` (racemic) [compound 12140] yielded an inhibition constant Ki of 0.416 µM.

On to `CN(C(=O)[C@@H]1CC=C[C@@H]2CCN(C3CCCCC3)C(=O)[C@@H]21)c1ccccc1` (racemic) [compound 12160], for which the Ki stood at 2.98 µM.

`Cc1ccc(NC(=O)[C@@H]2CC=C[C@@H]3CCN(Cc4ccccc4)C(=O)[C@@H]32)c(F)c1F` (racemic) [compound 13476] gave an inhibition constant Ki of 0.559 µM.

In the case of `O=C(Nc1nccs1)[C@@H]1CC=C[C@@H]2CCN(CC3CC3)C(=O)[C@@H]21` (racemic) [compound 12157], the inhibition constant (Ki) came out at 3.5 µM.

With `O=C(Nc1ccc(Br)c(C(F)(F)F)c1)[C@@H]1CC=C[C@@H]2CCN(CC3CCCCC3)C(=O)[C@@H]21` (racemic) [compound 12173], the affinity, expressed as Ki, was 0.508 µM. This Ki lies about 6.9-fold lower than the previous one.

In turn, `CN(C(=O)[C@@H]1CC=C[C@@H]2CCN(c3ccccc3)C(=O)[C@@H]21)c1ccccc1` (racemic) [compound 12119] yielded a Ki of 4.01 µM.

Regarding `O=C(Nc1ccccc1)[C@@H]1CC=C[C@@H]2CCN(Cc3ccccc3)C(=O)[C@@H]21` (racemic) [compound 12125], the inhibitory constant (Ki) was above 10 µM.

In the case of `CN(C(=O)[C@@H]1CC=C[C@@H]2CCN(CC3CCCCC3)C(=O)[C@@H]21)c1ccccc1` (racemic) [compound 12113], affinity was put at a Ki of 2.83 µM. In other words, the single-digit micromolar range.

With `O=C(Nc1cccc(Cl)c1)[C@@H]1CC=C[C@@H]2CN(C3CCCCC3)C(=O)[C@@H]21` (racemic) [compound 14437], the inhibitory constant (Ki) amounted to 0.962 µM.

Regarding `O=C(NC1CCCCC1)[C@@H]1CC=C[C@@H]2CN(C3CCCCC3)C(=O)[C@@H]21` (racemic) [compound 14436], the affinity corresponds to a Ki of 2.15 µM.

In the case of `CC(C)N(C(=O)[C@@H]1CC=C[C@@H]2CCN(CC3CCCCC3)C(=O)[C@@H]21)C1CCCCC1` (racemic) [compound 12134], the inhibitory constant (Ki) came to 1.63 µM.

The compound `CC(c1ccccc1)N1CCC2C=CCC(C(=O)Nc3cccc(Cl)c3)C2C1=O` (mixture of isomers) [compound 12165] gave a Ki of 1.21 µM. This Ki and that of the compound before are within 1.5-fold of each other.

In turn, `Cc1cc(C)c(NC(=O)[C@@H]2CC=C[C@@H]3CCN(c4ccccc4)C(=O)[C@@H]32)c(C)c1` (racemic) [compound 11951] registered a Ki of 4.3 µM.

For the compound `O=C(Nc1ccc(Cl)cc1)[C@@H]1CC=C[C@@H]2CCN(c3ccccc3)C(=O)[C@@H]21` (racemic) [compound 12097], the Ki turned out to be 0.168 µM. This Ki is about 26-fold lower than that of the compound before.

In turn, `O=C(Nc1ccc(I)cc1)[C@@H]1CC=C[C@@H]2CCN(c3ccccc3)C(=O)[C@@H]21` (racemic) [compound 11948] yielded an inhibition constant (Ki) of 0.083 µM.

Regarding `O=C(Nc1cc(F)c(F)c(F)c1)[C@@H]1CC=C[C@@H]2CCN(C3CCCCC3)C(=O)[C@@H]21` (racemic) [compound 12088], the affinity corresponds to a Ki of 2.79 µM.

Take `O=C(Nc1cc(F)c(F)c(F)c1)[C@@H]1CC=C[C@@H]2CCN(Cc3ccccc3)C(=O)[C@@H]21` (racemic) [compound 12103]: affinity was put at a Ki of 0.18 µM.

Consider `Cc1ccc(NC(=O)[C@@H]2CC=C[C@@H]3CCN(Cc4ccccc4F)C(=O)[C@@H]32)cc1C(F)(F)F` (racemic) [compound 13479], for which affinity was put at a Ki of 0.0095 µM. This Ki is about 19-fold lower than that of the compound before.

On to `O=C(Nc1cc(F)c(F)c(F)c1)[C@@H]1CC=C[C@@H]2CCN(CC3CC3)C(=O)[C@@H]21` (racemic) [compound 12093], for which the inhibitory constant (Ki) was 4.37 µM.

In the case of `O=C(Nc1cnccn1)[C@@H]1CC=C[C@@H]2CCN(CC3CCCCC3)C(=O)[C@@H]21` (racemic) [compound 12138], the inhibition constant (Ki) came to 1.65 µM.

On to `CN(C)C(=O)[C@@H]1CC=C[C@@H]2CCN(Cc3ccccc3)C(=O)[C@@H]21` (racemic) [compound 12101], for which the Ki is above 10 µM.

On to `O=C(NC1CCCCC1)[C@@H]1CC=C[C@@H]2CCN(CC3CC3)C(=O)[C@@H]21` (racemic) [compound 12152], for which the affinity corresponds to a Ki of 2.52 µM. This counts as single-digit micromolar.

With `O=C(Nc1cccnc1)[C@@H]1CC=C[C@@H]2CCN(Cc3ccccc3)C(=O)[C@@H]21` (racemic) [compound 11933], the inhibitory constant (Ki) came out at 3.53 µM. This Ki and that of the compound before are within 1.5-fold of each other.

`CN(C)C(=O)[C@@H]1CC=C[C@@H]2CCN(c3ccccc3)C(=O)[C@@H]21` (racemic) [compound 12096] yielded a Ki above 10 µM.

`O=C(Nc1cccnc1)[C@@H]1CC=C[C@@H]2CCN(c3ccccc3)C(=O)[C@@H]21` (racemic) [compound 11927]: the inhibition constant (Ki) amounted to 2.1 µM.

With `O=C(NCC1CC1)[C@@H]1CC=C[C@@H]2CCN(c3ccccc3)C(=O)[C@@H]21` (racemic) [compound 12095], affinity was put at a Ki of 1.23 µM.

Compound `O=C(Nc1ccc(Cl)c(C(F)(F)F)c1)[C@@H]1CC=C[C@@H]2CN(C3CCCCC3)C(=O)[C@@H]21` (racemic) [compound 14439] returned a Ki of 5.35 µM. Against the preceding compound, the Ki is about 4.3-fold higher.

The compound `O=C(Nc1cc(F)c(F)c(F)c1)[C@@H]1CC=C[C@@H]2CCN(c3ccccc3)C(=O)[C@@H]21` (racemic) [compound 12098] came in with an inhibitory constant (Ki) of 0.289 µM.

The compound `NC(=O)c1ccccc1NC(=O)[C@@H]1CC=C[C@@H]2CCN(Cc3ccccc3)C(=O)[C@@H]21` (racemic) [compound 12123] showed a Ki of 5.93 µM. Against the preceding compound, the Ki is about 21-fold higher.

`O=C(Nc1cccc(Cl)c1)[C@@H]1CC=C[C@@H]2CCN(CC3CC3)C(=O)[C@@H]21` (racemic) [compound 12154] had a Ki of 1.18 µM.

Compound `O=C(Nc1ccc(Cl)cc1)[C@@H]1CC=C[C@@H]2CCN(CC3CC3)C(=O)[C@@H]21` (racemic) [compound 12092] registered an inhibition constant (Ki) of 3.23 µM.

In turn, `O=C(Nc1ccc(Cl)cc1)[C@@H]1CC=C[C@@H]2CCN(C3CCCCC3)C(=O)[C@@H]21` (racemic) [compound 12087] registered a Ki of 0.582 µM. This Ki lies about 5.5-fold lower than the previous one.

`O=C(Nc1ccc(Br)c(C(F)(F)F)c1)[C@@H]1CC=C[C@@H]2CN(Cc3ccccc3)C(=O)[C@@H]21` (racemic) [compound 14432] came in with an inhibitory constant (Ki) of 2.77 µM.

The compound `O=C(NCc1ccccc1)[C@@H]1CC=C[C@@H]2CCN(Cc3ccccc3)C(=O)[C@@H]21` (racemic) [compound 11930] showed a Ki of 0.739 µM.

Regarding `O=C(Nc1ccc(F)c(F)c1)[C@@H]1CC=C[C@@H]2CCN(CC3CC3)C(=O)[C@@H]21` (racemic) [compound 12155], the Ki stood at 2.25 µM. Compared with the last compound, the Ki is about 3-fold higher.

Regarding `O=C(Nc1cccc(Cl)c1)[C@@H]1CC=C[C@@H]2CCCN(C3CCCCC3)C(=O)[C@@H]21` (racemic) [compound 14425], the inhibition constant (Ki) was found to be 6.04 µM.

In turn, `O=C([C@@H]1CC=C[C@@H]2CCN(C3CCCCC3)C(=O)[C@@H]21)N1CCCC1` (racemic) [compound 12084] registered an inhibition constant (Ki) of 6.29 µM.

Regarding `C=CCNC(=O)[C@@H]1CC=C[C@@H]2CCN(Cc3ccccc3)C(=O)[C@@H]21` (racemic) [compound 12122], the affinity, expressed as Ki, was 3.43 µM.

Take `O=C(Nc1ccc([N+](=O)[O-])c(C(F)(F)F)c1)[C@@H]1CC=C[C@@H]2CCN(c3ccccc3)C(=O)[C@@H]21` (racemic) [compound 11926]: the Ki is 0.035 µM.

`O=C(Nc1ccc(I)cc1)[C@@H]1CC=C[C@@H]2CCN(CC3CC3)C(=O)[C@@H]21` (racemic) [compound 11942] returned an inhibition constant (Ki) of 1.28 µM.

The compound `O=C(NCc1cccc(Br)c1)[C@@H]1CC=C[C@@H]2CCN(c3ccccc3)C(=O)[C@@H]21` (racemic) [compound 11949] yielded an inhibitory constant (Ki) of 0.302 µM.
